Experimental data as given in patent publication EP0418113A2, “Microbiological assay kit and method for detecting antibacterial compounds” (ORGENICS LIMITED, priority 1989, dated 1991).
Where “and” joins values, the source holds several entries; their conditions need not be identical. Identical values can stand only once.

How the values were obtained:
[1] = system: Strep. thermophilus cells; assay: Visual antibiotic assay in milk with lyophilized bacteria subjected to osmotic changes (MTT colour); type: cell-based, Streptococcus thermophilus (ATCC 14485)
Description: Keep cold until use. • (b) To each 1 mL milk specimen or controls add 0.053 gr glucose and 0.1 mL of rehydrated bacterial suspension obtained in (a) above. Mix and incubate at 42°C for 25 min. • (c) Add 2 mL of a chromogenic mixture, containing 0.5 % glucose and 0.175 mg/mL MTT in water to each of the specimens and controls. Mix and incubate for 5 min at 42°C. • (d) Visually examine the color of each specimen and compare it to the color of the control. A color density lower than the color of the control indicates antibiotic activity in the specimen. Table 5 below summarizes the sensitivity of the visual assay for various antibiotic drugs, added to antibiotic free milk specimens.

[2] = system: Strep. thermophilus cells; assay: Detection of Penicillin G in milk by inhibition of MTT reduction in Strep. thermophilus cells, butanol extraction, OD 570 nm; type: cell-based, Streptococcus thermophilus (ATCC 14485); details: isotonic MTT solution (0.3M sucrose); Penicillin concentration 4; lyophilized cells
[3] = system: Strep. thermophilus cells; assay: as above; type: cell-based, Streptococcus thermophilus (ATCC 14485)
Description: • (a) Streak Streptococcus thermophilus (ATCC 14485) suspension on solid medium, comprising 10 % Difco skim milk, 0,5 % Difco yeast extract, 2 % Agar in distilled water. Distinct colonies should emerge after overnight incubation at 42°C. • (b) Suspended a colony in 10 mL of a liquid medium, comprising 10 % Difco skim milk and 0.5 % Difco yeast extract in water (medium A). Incubate the suspension overnight at 42°C in 12 mL plastic, disposable centrifuge test tubes. • (c) Dilute the resultant suspension 1:10 into medium A and incubate at 42°C until the pH of the medium drops to 5.0 (about 2hrs). The resulting viable cell concentration is 1-2x10⁸/1mL. • (d) Cell concentration can be increased by adding 1N NaOH solution until the pH is raised to 6.2, and continuing incubation at 42°C until the pH drops again to 5.0. This cycle can be repeated 5-7 times until the culture becomes stationary at 1-2x10⁹ cells/mL. • (e) Adjust cell concentration to 1 x 10⁸ cells mL and store at 6-10°C for up to 24 hrs for use in antibiotic assay. Alternatively, distribute 2 mL aliquots of the suspension into 12 mL Penicillin vials (24 x 45 mm), freeze in liquid nitrogen and dry on refrigerated shelves of a stoppering, programmable lyophilizer, employing a 48-72 hour program.
• (a) Add 2 mL of distilled water to each vial of dried Strep. thermophilus cells, prepared as described in Example 1. Freshly grown Strep. thermophilus at 1x10⁸ cells/mL are used without any treatment. • (b) Construct reaction mixtures for the detection of antibiotic activity in milk specimens from 0.4 mL cell suspension (fresh or rehydrated lyophilized), 1.6 mL milk specimen, 0.05 mL 10 % Difco Yeast Extract and 0.05 mL 10 % Difco Tryptose. Include at least one control milk specimen, known not to contain any antibiotic drug, whenever the Antibiotic assay is employed. • (c) Incube the complete antibiotic exposure mixtures of the control and unknown milk specimens for 25 minutes at 42°C. • (d) Upon completion of the incubation mix 0.4 mL aliquots of all reaction mixtures with 1.6 mL of 0.5 % glucose, 0.175 mg/mL MTT (3-[4,5-Dimethylthiazol-2-yl]-2.5 diphenyltetrazolium bromide) in water, and incubate for 5 minutes. The amount of color resulting from MTT reduction can be estimated by one of the methods detailed in Example 3.
Transfer a 0.75 mL aliquot of the reaction mixture to a 2 mL microcentrifuge test tube. Add 0.75 mL 1-Butanol. Agitate on a vortex mixer for 15 seconds. Centrifuge the suspension at 10,000 x g for 2.5 minutes. Transfer 0.6 mL the upper clear, colored phase to a clean microcentrifuge test tube, containing 0.6 mL 1-Butanol. Agitate on a vortex mixer for 15 seconds. Centrifuge the suspension at 10,000 x g for 2.5 minutes. Transfer 1 mL the upper clear, colored phase to a clean cuvette. Determine the color density at 570 nm.
Milk specimens containing 3.5 or 7 mIU/mL of Penicillin G were tested with lyophilized Strep. thermophilus organisms, as described in Example 2. Color development for each antibiotic concentration was carried out either with the MTT solution as described in section (d) of Example 2, which is hypotonic or with the same solution, made isotonic by the addition of sucrose to 0.3M final concentration.
The amount of MTT color produced was determined by measuring the optical density of butanol extract made from the reaction mixtures (example 3 (d)).
Milk specimens containing 1-14 mIU:mL Penicillin G, were tested as described in Example 2 for lyophilized bacteria.
Milk specimens, containing 7 mIU/mL of Penicillin G were tested as described in Example 2 for lyophilized Strep. thermophilus cultivated to high density by pH adjustments. Incubation times of the milk specimens with the indicator bacteria varied between 10 and 25 minutes. Incubation with the MTT solution varied between 5 and 10 minutes. The amount of MTT color produced was determined by measuring the optical density of butanol extract made from the reaction mixtures (example 3 (d)). […]

[4] = system: B. stearothermophilus (ATCC 10149) cells; assay: Inhibition of MTT colour formation in B. stearothermophilus after pre-incubation in isotonic or hypertonic medium (Tryptic Soy broth); type: cell-based, Bacillus stearothermophilus; details: specimen containing 40 mIU/mL Penicillin G
Description: Logarithmic B. stearothermophilus (ATCC 10149) cells were suspended in Difco Tryptic Soy broth with or without 0.8M sucrose, and incubated at 55°C with shaking for 1 hr. […] Control reaction mixture was constructed with bacterial suspension and Tryptic Soy broth. Following a 30 min incubation at 55°C, all reaction mixtures were diluted 1:5 into […] MTT, 0.5 glucose in water and incubation continued for 5 minutes. The color suspension was clarified by vigorously mixing 0.5 mL aliquots with 0.7 mL isoamyl alcohol containing 0.04N hydrochloric acid. The optical density of the clarified mixtures was measured at 570 nm and the inhibition of color formation, relative to the control was calculated and is presented in Table 7.

[5] = system: B. stearothermophilus ATCC 10149; assay: Detection of Penicillin G in milk with B. stearothermophilus cells (MTT reduction); type: cell-based, Bacillus stearothermophilus; details: 30 min at 55°C + 10 min MTT
Description: The whole reaction mixture is filtered through glass filter paper circles (e.g. Whatman GF/F, 2.5 cm diameter). The color can be estimated visually or measured by a reflecting densitometer, such as Gretag D182 (Gretag Ltd., CH-8105 Regensdorf, Switzerland). • (a) Inoculate B. stearothermophilus ATCC 10149 into a liquid medium constructed from 10 % Difco skim milk and 0.5 % Difco yeast extract in water. Incubate at 55°C with constant (shaking) for 18 hrs. • (b) Dilute the overnight culture 1:20 into fresh liquid medium and continue shaking at 55°C for 2 hrs. • (c) Dilute 1:10 into liquid medium fortified with 0.8M sucrose and continue shaking at 55°C for 2.5 hrs. […] Use immediately or keep on ice until ready to continue. • (d) Mix each Penicillin containing milk specimen with an equal volume of B. stearothermophilus suspension, as obtained in Step (c). Shake for 30 minutes at 55°C. • (e) Add MTT solution, as described in Example 2 (d) and continue shaking for 10 minutes at 55°C. • (f) Determine the amount of MTT dye as described in Example 3(b).

[6] = added to antibiotic free milk, 25 min at 42°C + 5 min MTT
[7] = Penicillin Concentration 1 mIU/mL, lyophilized cells
[8] = Penicillin Concentration 2 mIU/mL, lyophilized cells
[9] = Penicillin Concentration 4 mIU/mL, lyophilized cells
[10] = Penicillin Concentration 7 mIU/mL, lyophilized cells
[11] = Penicillin Concentration 14 mIU/mL, lyophilized cells
[12] = dried (lyophilized) cells, 7 mIU/mL Penicillin G in milk
[13] = hypotonic MTT solution, Penicillin concentration 4, lyophilized cells
[14] = hypotonic MTT solution, Penicillin concentration 7, lyophilized cells
[15] = isotonic MTT solution (0.3M sucrose), Penicillin concentration 7, lyophilized cells
[16] = Penicillin G Concentration 16 mIU/mL in milk
[17] = Penicillin G Concentration 32 mIU/mL in milk

## Cc1onc(-c2ccccc2Cl)c1C(=O)N[C@@H]1C(=O)N2[C@@H]1SC(C)(C)[C@@H]2C(=O)O [Cloxacillin]
[1]; [6]
  Sensitivity (lowest concentration causing visually detectable decrease in color): 0.002 µg/mL

## O=C(N[C@H](CO)[C@H](O)c1ccc([N+](=O)[O-])cc1)C(Cl)Cl [Chloramphenicol]
[1]; [6]
  Sensitivity (lowest concentration causing visually detectable decrease in color): 2.5 µg/mL

## CC1(C)S[C@@H]2[C@H](NC(=O)[C@H](N)c3ccccc3)C(=O)N2[C@H]1C(=O)O [Ampicillin]
[1]; [6]
  Sensitivity (lowest concentration causing visually detectable decrease in color): 0.002 µg/mL

## CN(C)[C@@H]1C(O)=C(C(N)=O)C(=O)[C@@]2(O)C(O)=C3C(=O)c4c(O)cccc4[C@@](C)(O)[C@H]3[C@H](O)[C@@H]12 [Oxytetracycline]
[1]; [6]
  Sensitivity (lowest concentration causing visually detectable decrease in color): 0.4 µg/mL

## CC1(C)S[C@@H]2[C@H](NC(=O)Cc3ccccc3)C(=O)N2[C@H]1C(=O)O [Penicillin G]
[2]
  % inhibition: 3%
[1]; [6]
  Sensitivity (lowest concentration causing visually detectable decrease in color): 3.5 mIU/mL
[3]; 7 mIU/mL Penicillin G, first incubation 10 min, MTT 5 min (total 15 min), lyophilized high-density cells
  Inhibition (%): 7%
[3]; 7 mIU/mL Penicillin G, first incubation 10 min, MTT 10 min (total 20 min), lyophilized high-density cells
  Inhibition (%): 40% and 42%
[3]; 7 mIU/mL Penicillin G, first incubation 15 min, MTT 5 min (total 20 min), lyophilized high-density cells
  Inhibition (%): 21%
[3]; 7 mIU/mL Penicillin G, first incubation 15 min, MTT 10 min (total 25 min), lyophilized high-density cells
  Inhibition (%): 42%
[3]; 7 mIU/mL Penicillin G, first incubation 20 min, MTT 5 min (total 25 min), lyophilized high-density cells
  Inhibition (%): 77%
[3]; 7 mIU/mL Penicillin G, first incubation 20 min, MTT 10 min (total 30 min), lyophilized high-density cells
  Inhibition (%): 53%
[3]; 7 mIU/mL Penicillin G, first incubation 25 min, MTT 5 min (total 30 min), lyophilized high-density cells
  Inhibition (%): 62%
[3]; 7 mIU/mL Penicillin G, first incubation 25 min, MTT 10 min (total 35 min), lyophilized high-density cells
  Inhibition (%): 57%
[3]; [7]
  Inhibition (%): 17%
  OD at 570 nm: 0.098
[3]; [8]
  Inhibition (%): 32%
  OD at 570 nm: 0.080
[3]; [9]
  Inhibition (%): 56%
  OD at 570 nm: 0.052
[3]; [10]
  Inhibition (%): 74%
  OD at 570 nm: 0.031
[3]; [11]
  Inhibition (%): 80%
  OD at 570 nm: 0.024
[3]; [12]
  % inhibition: 60%
  OD 570 nm in 7 mIU/mL Penicillin Specimen: 0.062
[3]; fresh cells, 7 mIU/mL Penicillin G in milk
  % inhibition: 55%
[3]; fresh cells, 7 mIU/mL Penicillin G in milk, 25 min at 42°C + 5 min MTT
  OD 570 nm in 7 mIU/mL Penicillin Specimen: 0.088
[3]; [13]
  % inhibition: 56%
  OD at 570 nm: 0.052
[3]; [14]
  % inhibition: 74%
  OD at 570 nm: 0.031
[3]; isotonic MTT solution (0.3M sucrose), Penicillin concentration 4, lyophilized cells
  OD at 570 nm: 0.113
[3]; [15]
  % inhibition: 34%
  OD at 570 nm: 0.077
[3]; lyophilized cells, butanol extraction, OD 570 nm
  concentration detectable in milk: 1 mIU/mL
[4]; hypertonic pre-incubation medium (0.8M sucrose)
  % Inhibition with: 54%
[4]; isotonic pre-incubation medium (without sucrose)
  % Inhibition with: 10%
[5]; [16]
  % inhibition: 34%
  OD at 570 nm: 0.250
[5]; [17]
  % inhibition: 59%
  OD at 570 nm: 0.155

## CN(C)[C@@H]1C(O)=C(C(N)=O)C(=O)[C@@]2(O)C(O)=C3C(=O)c4c(O)cccc4[C@@](C)(O)[C@H]3C[C@@H]12 [Tetracycline]
[1]; [6]
  Sensitivity (lowest concentration causing visually detectable decrease in color): 0.2 µg/mL

## Polymyxin
[1]; [6]
  Sensitivity (lowest concentration causing visually detectable decrease in color): 10 µg/mL

## Nc1ccc(S(=O)(=O)Nc2ncccn2)cc1 [Sulfadiazine]
[1]; test conducted in presence of 10 ug.mL trimethoprim, added to the milk specimen
  Sensitivity (lowest concentration causing visually detectable decrease in color): 20 ug/mL^b
